This is an account of results in US11931365B2, “Use of PPAR-delta agonists in the treatment of disease” (Reneo Pharmaceuticals, Inc., priority 2022, dated 2024).

Series [1] is described as follows: Stability of solid state forms (storage, drying), XRPD. The format is physicochemical. The conditions noted are these: for XRPD after static storage: 40° C./75% RH for 10 days; for XRPD after ambient storage: 24 hours, 48 hours, 7 days, or 10 days. The procedure:
Samples were assessed for stability under ambient or static storage conditions of 25° C./[…] and 40° C./75% RH for 7 or 10 days. The samples were then re-analyzed by XRPD. Subsequent XRPD analysis results for the crystalline forms are described below: […]

Series [2] concerns VLCAD deficient cell line FB833. The conditions noted are these: FB833 cells; WO18093839; cited from earlier work.
Series [3] relates to healthy male volunteers, leg immobilization. Description: Phase 1 placebo-controlled study in healthy volunteers with single limb immobilization. The format is in vivo, human. The arrangement: Change from baseline in muscle strength, mean: unit not given beside the values. The procedure: In a prior clinical trial in healthy volunteers, Compound I was administered at dose of 100 mg twice daily for 28 days in healthy volunteers during and after a single limb immobilization (see NCT01524406). The study was conducted to evaluate the impact of Compound I on the recovery of muscle atrophy from leg immobilization, and improvements in cross section area (CSA) and muscle strength parameters expected in patients treated with study drug compared to those given placebo.
This phase 1, randomized, parallel group, placebo-controlled study was conducted at 2 centers in the United States. Fifty participants were planned for enrollment, 25 per group; participants could be replaced upon sponsor approval.
Screening was conducted 28 days before study start; eligibility was reviewed again at prespecified times during the study. Ambulatory, non-smoking, healthy male volunteers 30 to 55 years of age with a Body Mass Index (BMI) from 18 to 30 kg/m2 were recruited for the study. Key exclusion criteria included abnormal laboratory values at screening, a recent history of body weight fluctuations, positive urine drug screens, drug dependency or illicit drug use, professional sport participation within 30 days of screening, donation of whole blood within 90 days of dosing, and donation of plasma within 30 days of dosing. Concomitant medications within 14 days of dosing were not allowed unless approved by the sponsor. Those who had enrolled in another clinical trial within 90 days or had previously received Compound II were not allowed to participate.
Participants were randomly assigned 1:1 to receive either Compound II (100 mg BID) or matching placebo for 28 days using a computer generated randomization schedule provided by the sponsor. The principal investigator, study center staff, and participants were blinded to treatment; the protocol was amended so that sponsor personnel were not blinded. This change was made to allow investigation of observations concerning adherence to the protocol, discussed further in the pharmacodynamic results. Compound II and placebo were provided as capsules identical in appearance, taken orally with 240 ml of water prior to meals. Study drug was administered at the study site on Days 1 (PM dose), 6 (AM dose), 13 (PM dose), and 14, 15, 16, 29 (AM doses). At all other times study drug was self-administered just before breakfast and dinner. Dates and times were recorded in a diary, with compliance determined from the diaries and capsule counts. Study drug supplies were packaged according to the randomization codes by a contract research organization. Each dispensed bottle was labeled with the randomization number. Individual capsules were re-dispensed from these bottles by the study site staff, maintaining the blind. The total study duration for each subject was 42 days. Participants stayed overnight from Day 1 and Days 13 to 16.
Standardized meals, beverages and snacks were provided during the domicile periods. On Day 1, participants were leg-immobilized using a knee brace with […] on the left leg to allow driving. Walking crutches were provided to prevent weight bearing on the immobilized leg. An accelerometer was issued at screening and was used to count the number of steps per day. Participants were to walk 4000 to 6000 steps each day for the duration of the leg immobilization period, and recorded accelerometer readings each evening before bedtime. The brace was removed on Day 14, and participants resumed normal physical activity gradually from Days 16 to 29. After stopping study drug on Day 29, participants were to resume regular daily activity gradually for another 2 weeks. Consumption of prescribed medications or over the counter products was prohibited from 14 days prior to dosing and throughout the study, with the exception of the treatment of an adverse event. Participants were not to consume alcohol or caffeine containing food and beverages 3 days before each study visit and domicile periods. […]

Series [4] is described as follows: XRPD re-analysis after GVS isotherm. The conditions noted are these: after isotherm at 90% RH and 25° C. The format is physicochemical. The procedure:
The samples were recovered after completion of the isotherm experiment at 90% RH and 25° C. and re-analyzed by XRPD.

The nature of series [5]: Gravimetric Vapor Sorption (GVS). It counts as physicochemical. The conditions noted are these: 25° C., w/w. The procedure: Sorption isotherms were obtained using a SMS DVS Intrinsic moisture sorption analyzer, controlled by DVS Intrinsic Control software. The sample temperature was maintained at 25° C. by the instrument controls. The humidity was controlled by mixing streams of dry and wet nitrogen, with a total flow rate of 200 ml/min. The relative humidity was measured by a calibrated Rotronic probe (dynamic range of 1.0-100% RH), located near the sample. The weight change, (mass relaxation) of the sample as a function of % RH was constantly monitored by a microbalance (accuracy ±0.005 mg).
Typically, 5-30 mg of sample was placed in a tared mesh stainless steel basket under ambient conditions. The sample was loaded and unloaded at 40% RH and 25° C. (typical room conditions). A moisture sorption isotherm was performed as outlined below (2 scans per complete cycle). The standard isotherm was performed at 25° C. at 10% RH intervals over a 0-90% RH range. Typically, a double cycle (4 scans) was carried out. Data analysis was carried out within Microsoft Excel using the DVS Analysis Suite.

The test system of the next series is mice. The conditions noted are these: cited from earlier work; for oxidative muscle fibers (and mitochondrial biogenesis) / physical performance / running endurance: combined with exercise.
Setting [6] is: listed as amorphous Compound II.
Setting [7] is: listed as crystalline Form 2 of Compound II.
[8] abbreviates: listed as crystalline Form 3 of Compound II.
Setting [9] is: listed as crystalline Pattern 9 of Compound II.

Read-outs that look alike come from different tables or passages of the source.

As for `Cc1cc(OC/C=C(/c2ccc(F)cc2)c2ccc(C#CCN3CCOCC3)cc2)ccc1OCC(=O)[O-].[Na+]` [Pattern 5, sodium (E)-2-(4-((3-(4-fluorophenyl)-3-(4-(3-morpholinoprop-1-yn-1-yl)phenyl)allyl)oxy)-2-methylphenoxy)acetate], in series [1], the “stability of the solid form” value is given as “unstable”.
In the case of `Cc1cc(OC/C=C(/c2ccc(F)cc2)c2ccc(C#CCN3CCOCC3)cc2)ccc1OCC(=O)[O-].[Na+]` [amorphous, sodium (E)-2-(4-((3-(4-fluorophenyl)-3-(4-(3-morpholinoprop-1-yn-1-yl)phenyl)allyl)oxy)-2-methylphenoxy)acetate], in series [1] (setting [6]), the “XRPD after static storage” value is “unchanged” and the “XRPD after ambient storage” value is listed as “unchanged”. In series [1] (listed as amorphous solid form), the “XRPD after static storage” value is reported as “no change” and the “XRPD after ambient storage” value is on record as “no change”.
Take `CCCc1c(OCCCOc2ccc(OCC(=O)O)cc2)ccc(C(C)=O)c1O` [L-165,0411, [4-[3-(4-Acetyl-3-hydroxy-2-propylphenoxy)propoxy]phenoxy]acetic acid]: in series [2], the VLCAD enzyme activity entry is on record as “increase”.
Take `Cc1cc(OC/C=C(/c2ccc(F)cc2)c2ccc(C#CCN3CCOCC3)cc2)ccc1OCC(=O)[O-].[Na+]` [Compound II, sodium (E)-2-(4-((3-(4-fluorophenyl)-3-(4-(3-morpholinoprop-1-yn-1-yl)phenyl)allyl)oxy)-2-methylphenoxy)acetate]: in series [3] (100 mg BID), the “participants discontinued due to an adverse event of elevated CK” value worked out at 8.3%. Besides, the “Change from baseline in muscle strength, mean” value was −5.86 in series [3] (Day 14, 100 mg BID); 32.82 in series [3] (Day 21, 100 mg BID); 25.58 in series [3] (Day 29, 100 mg BID); 37.96 in series [3] (Day 42, 100 mg BID). For the same compound, the “increase from baseline in PDK4, ANGPTL4 and SLC25A34 expression” value in series [3] (muscle biopsies, from Day 14) was “up to 3.5 fold”.
In the case of `Cc1cc(SCc2sc(-c3ccc(C(F)(F)F)c(F)c3)nc2C)ccc1OCC(=O)O` [GW0742, [4-[[[2-[3-Fluoro-4-(trifluoromethyl)phenyl]-4-methyl-5-thiazolyl]methyl]thio]-2-methylphenoxy]acetic acid], the VLCAD enzyme activity entry in series [2] is “increase”.
With `Cc1cc(OC/C=C(/c2ccc(F)cc2)c2ccc(C#CCN3CCOCC3)cc2)ccc1OCC(=O)[O-].[Na+]` [Form 2, sodium (E)-2-(4-((3-(4-fluorophenyl)-3-(4-(3-morpholinoprop-1-yn-1-yl)phenyl)allyl)oxy)-2-methylphenoxy)acetate], the “Solid State Form After GVS (XRPD)” value in series [4] is given as “Unchanged (Form 2)”; in series [4] (setting [7]), “unchanged”. The “Reversible Water Uptake between 0-90% RH” value in series [5] and in series [5] (setting [7]) was ~25% in each case. The “XRPD form after storage” value in series [1] (25° C./97% RH/7 days) is on record as “Unchanged (Form 2)”; in series [1] (25° C./97% RH/7 days, listed as crystalline Form 2 of Compound II) it was “unchanged”; in series [1] (40° C./75% RH/7 days) it was “Unchanged (Form 2)”; in series [1] (40° C./75% RH/7 days, listed as crystalline Form 2 of Compound II), “unchanged”.
`Cc1cc(OC/C=C(/c2ccc(F)cc2)c2ccc(C#CCN3CCOCC3)cc2)ccc1OCC(=O)[O-].[Na+]` [Form 3, sodium (E)-2-(4-((3-(4-fluorophenyl)-3-(4-(3-morpholinoprop-1-yn-1-yl)phenyl)allyl)oxy)-2-methylphenoxy)acetate]: the figures for the “Solid State Form After GVS (XRPD)” value in series [4] and in series [4] (setting [8]) were “Form 1” and “converts to Form 1”, respectively. The “Reversible Water Uptake between 0-90% RH” value in series [5] and in series [5] (setting [8]) was ~9.0% each time. For the same compound, the “XRPD form after storage” value is given as “Form 1” in series [1] (40° C./75% RH/7 days) and “converts to Form 1” in series [1] (40° C./75% RH/7 days, listed as crystalline Form 3 of Compound II). Also, the “form change on drying” value in series [1] is given as “converts to Form 1”. The “form change on standing” value in series [1] (standing in ambient conditions) was “converts to Form 1”.
Consider `Cc1cc(OC/C=C(/c2ccc(F)cc2)c2ccc(C#CCN3CCOCC3)cc2)ccc1OCC(=O)[O-].[Na+]` [Pattern 8, sodium (E)-2-(4-((3-(4-fluorophenyl)-3-(4-(3-morpholinoprop-1-yn-1-yl)phenyl)allyl)oxy)-2-methylphenoxy)acetate], for which the “form change on drying” value in series [1] is given as “converts to Form 1”.
`Cc1cc(OC/C=C(/c2ccc(F)cc2)c2ccc(C#CCN3CCOCC3)cc2)ccc1OCC(=O)[O-].[Na+]` [Form 5, sodium (E)-2-(4-((3-(4-fluorophenyl)-3-(4-(3-morpholinoprop-1-yn-1-yl)phenyl)allyl)oxy)-2-methylphenoxy)acetate]: the “Solid State Form After GVS (XRPD)” value in series [4] is “Form 1”; in series [4] (listed as crystalline Form 5 of Compound II), “converts to Form 1”. Besides, in series [5], the “Reversible Water Uptake between 0-90% RH” value is on record as ~11%. Besides, the “form change on drying” value in series [1] is on record as “converts to Form 1”.
As for `Cc1cc(SCc2sc(-c3ccc(C(F)(F)F)cc3)nc2C)ccc1OCC(=O)O` [GW501516, 2-[2-Methyl-4-[[[4-methyl-2-[4-(trifluoromethyl)phenyl]-5-thiazolyl]methyl]thio]phenoxy]acetic acid], the energy substrate usage result in the series with mice (8 weeks) is “clear shift in energy substrate usage from glucose to fatty acid oxidation”. Besides, in the series on mice (listed as GW1516), the “oxidative muscle fibers (and mitochondrial biogenesis)” value was “synergistically induced” and the “physical performance / running endurance” value is given as “enhanced”. Moreover, in the series on mice, the “oxidative muscle fibers (and mitochondrial biogenesis)” value is reported as “increase” and the “physical performance / running endurance” value is “enhance”. Moreover, the VLCAD enzyme activity entry in series [2] was “increase”.
In the case of `Cc1cc(OC/C=C(/c2ccc(F)cc2)c2ccc(C#CCN3CCOCC3)cc2)ccc1OCC(=O)[O-].[Na+]` [Pattern 9, sodium (E)-2-(4-((3-(4-fluorophenyl)-3-(4-(3-morpholinoprop-1-yn-1-yl)phenyl)allyl)oxy)-2-methylphenoxy)acetate], the “Solid State Form After GVS (XRPD)” value is given as “Unchanged (Pattern 9)” in series [4] and “unchanged” in series [4] (setting [9]). Besides, the “Reversible Water Uptake between 0-90% RH” value in series [5] and in series [5] (setting [9]) was ~27% each time.
